System: 435261-313-R-J1-PDC complex spheroid viability
Assay: Anticancer human tumor 435261-313-R-J1-PDC patient-derived colon adenocarcinoma cell line growth inhibition [GQUAD]
Details: for IC50: curve of first compound; for viability, T/C: stronger effect = lower value
Summary of the method: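 Tumor cells were grown as complex spheroids with HUVEC endothelial cells and mesenchymal stem cells as stroma. G-quadruplex stabilizers were combined with targeted agents over half-log dilutions from near the clinical Cmax, or from 10 microM.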
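Further: spheroids exposed to the agents for seven days before readout.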
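Wherever viability, T/C is given: percent of vehicle control viability with DMSO wells as 100%.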

## C#Cc1c(F)ccc2cc(O)cc(-c3ncc4c(N5CC6CCC(C5)N6)nc(OCC56CCCN5CC(F)C6)nc4c3F)c12 (configuration not stated) + CN(C)c1ccc(Nc2c3ccc(NC(=O)CCN4CCCC4)cc3nc3cc(NC(=O)CCN4CCCC4)ccc23)cc1
Second compound 0.0316 µM
  IC50: > 10 µM
Second compound 0.1 µM
  IC50: > 10 µM
Second compound 0.316 µM
  IC50: > 10 µM
Second compound 1 µM
  IC50: > 10 µM
Second compound 3.16 µM
  IC50: 3.58 µM
Second compound 10 µM
  IC50: 0.199 µM
Second compound 0.0316 µM, first compound 0.0316 µM
  viability, T/C: 77%
Second compound 0.0316 µM, first compound 0.1 µM
  viability, T/C: 118%
Second compound 0.0316 µM, first compound 0.316 µM
  viability, T/C: 114%
Second compound 0.0316 µM, first compound 1 µM
  viability, T/C: 58.1%
Second compound 0.0316 µM, first compound 3.16 µM
  viability, T/C: 64.9%
Second compound 0.0316 µM, first compound 10 µM
  viability, T/C: 48.8%
Second compound 0.1 µM, first compound 0.0316 µM
  viability, T/C: 123%
Second compound 0.1 µM, first compound 0.1 µM
  viability, T/C: 110%
Second compound 0.1 µM, first compound 0.316 µM
  viability, T/C: 94.6%
Second compound 0.1 µM, first compound 1 µM
  viability, T/C: 99.6%
Second compound 0.1 µM, first compound 3.16 µM
  viability, T/C: 66.1%
Second compound 0.1 µM, first compound 10 µM
  viability, T/C: 60.5%
Second compound 0.316 µM, first compound 0.0316 µM
  viability, T/C: 89.3%
Second compound 0.316 µM, first compound 0.1 µM
  viability, T/C: 130%
Second compound 0.316 µM, first compound 0.316 µM
  viability, T/C: 82%
Second compound 0.316 µM, first compound 1 µM
  viability, T/C: 78%
Second compound 0.316 µM, first compound 3.16 µM
  viability, T/C: 50.7%
Second compound 0.316 µM, first compound 10 µM
  viability, T/C: 64%
Second compound 1 µM, first compound 0.0316 µM
  viability, T/C: 82.5%
Second compound 1 µM, first compound 0.1 µM
  viability, T/C: 87.9%
Second compound 1 µM, first compound 0.316 µM
  viability, T/C: 103%
Second compound 1 µM, first compound 1 µM
  viability, T/C: 64.5%
Second compound 1 µM, first compound 3.16 µM
  viability, T/C: 62.4%
Second compound 1 µM, first compound 10 µM
  viability, T/C: 54.7%
Second compound 3.16 µM, first compound 0.0316 µM
  viability, T/C: 67.8%
Second compound 3.16 µM, first compound 0.1 µM
  viability, T/C: 65.8%
Second compound 3.16 µM, first compound 0.316 µM
  viability, T/C: 42.2%
Second compound 3.16 µM, first compound 1 µM
  viability, T/C: 42.5%
Second compound 3.16 µM, first compound 3.16 µM
  viability, T/C: 56.7%
Second compound 3.16 µM, first compound 10 µM
  viability, T/C: 9.31%
Second compound 10 µM, first compound 0.0316 µM
  viability, T/C: 44.2%
Second compound 10 µM, first compound 0.1 µM
  viability, T/C: 73.5%
Second compound 10 µM, first compound 0.316 µM
  viability, T/C: 42.1%
Second compound 10 µM, first compound 1 µM
  viability, T/C: 23.6%
Second compound 10 µM, first compound 3.16 µM
  viability, T/C: 19.8%
Second compound 10 µM, first compound 10 µM
  viability, T/C: 0.2%

— PubChem BioAssay AID2060494 (Molecular Pharmacology Branch, DTP, NCI, 2025)
